Measurements from the kinase profiling compilation of Christmann-Franck et al. (2016).
Blank lines part the entries; values can stand above or below the compound they belong to.

Assays:
Test in all cases: radiometric filter-binding kinase assay, Kinase HotSpot
Conditions in all cases: compound 0.5 µM; ATP 10 µM
DYRK1B (human) = DYRK1B (human) (UniProt Q9Y463)
DCLK2 (human) = DCLK2 (human) (UniProt Q8N568)
GRK5 (human) = GRK5 (human) (UniProt P34947)
SGK2 (human) = SGK2 (human) (UniProt Q9HBY8)
CAMK1G (human) = CAMK1G (human) (UniProt Q96NX5)
TXK (human) = TXK (human) (UniProt P42681)
EPHA5 (human) = EPHA5 (human) (UniProt P54756)
SRPK3 (human) = SRPK3 (human) (UniProt Q9UPE1)
AKT3 (human) = AKT3 (human) (UniProt Q9Y243)
IKBKB (human) = IKBKB (human) (UniProt O14920)
SRPK1 (human) = SRPK1 (human) (UniProt Q96SB4)
FGR (human) = FGR (human) (UniProt P09769)
MAPK1 (human) = MAPK1 (human) (UniProt P28482)
RPS6KA4 KD2 (human) = RPS6KA4 KD2 (human) (UniProt O75676)
TGFBR1 (human) = TGFBR1 (human) (UniProt P36897)
TYRO3 (human) = TYRO3 (human) (UniProt Q06418)
ADRBK2 (human) = ADRBK2 (human) (UniProt P35626)
NEK1 (human) = NEK1 (human) (UniProt Q96PY6)
SRMS (human) = SRMS (human) (UniProt Q9H3Y6)
BLK (human) = BLK (human) (UniProt P51451)
CSNK1G1 (human) = CSNK1G1 (human) (UniProt Q9HCP0)
MAPKAPK5 (human) = MAPKAPK5 (human) (UniProt Q8IW41)
ACVR1 (human) = ACVR1 (human) (UniProt Q04771)
DYRK4 (human) = DYRK4 (human) (UniProt Q9NR20)
CDK9 CCNT1 (human) = CDK9 CCNT1 (human) (UniProt P50750+O60563)
PDGFRB (human) = PDGFRB (human) (UniProt P09619)
ABL1 (human) = ABL1 (human) (UniProt P00519)
RPS6KA6 KD1 KD2 (human) = RPS6KA6 KD1 KD2 (human) (UniProt Q9UK32)
CDK4 CCND3 (human) = CDK4 CCND3 (human) (UniProt P30281+P11802)
MAPK12 (human) = MAPK12 (human) (UniProt P53778)
EPHA7 (human) = EPHA7 (human) (UniProt Q15375)
RPS6KA1 KD1 KD2 (human) = RPS6KA1 KD1 KD2 (human) (UniProt Q15418)
BRSK1 (human) = BRSK1 (human) (UniProt Q8TDC3)
PRKCH (human) = PRKCH (human) (UniProt P24723)
NEK6 (human) = NEK6 (human) (UniProt Q9HC98)
CSNK2A1 (human) = CSNK2A1 (human) (UniProt P68400)
NEK4 (human) = NEK4 (human) (UniProt P51957)
CDK1 CCNB1 (human) = CDK1 CCNB1 (human) (UniProt P06493+P14635)
DAPK1 (human) = DAPK1 (human) (UniProt P53355)
CDK6 CCND1 (human) = CDK6 CCND1 (human) (UniProt Q00534+P24385)
STK3 (human) = STK3 (human) (UniProt Q13188)

Chain of RPS6KA4 KD2 (human) (O75676 whole entry, looked up): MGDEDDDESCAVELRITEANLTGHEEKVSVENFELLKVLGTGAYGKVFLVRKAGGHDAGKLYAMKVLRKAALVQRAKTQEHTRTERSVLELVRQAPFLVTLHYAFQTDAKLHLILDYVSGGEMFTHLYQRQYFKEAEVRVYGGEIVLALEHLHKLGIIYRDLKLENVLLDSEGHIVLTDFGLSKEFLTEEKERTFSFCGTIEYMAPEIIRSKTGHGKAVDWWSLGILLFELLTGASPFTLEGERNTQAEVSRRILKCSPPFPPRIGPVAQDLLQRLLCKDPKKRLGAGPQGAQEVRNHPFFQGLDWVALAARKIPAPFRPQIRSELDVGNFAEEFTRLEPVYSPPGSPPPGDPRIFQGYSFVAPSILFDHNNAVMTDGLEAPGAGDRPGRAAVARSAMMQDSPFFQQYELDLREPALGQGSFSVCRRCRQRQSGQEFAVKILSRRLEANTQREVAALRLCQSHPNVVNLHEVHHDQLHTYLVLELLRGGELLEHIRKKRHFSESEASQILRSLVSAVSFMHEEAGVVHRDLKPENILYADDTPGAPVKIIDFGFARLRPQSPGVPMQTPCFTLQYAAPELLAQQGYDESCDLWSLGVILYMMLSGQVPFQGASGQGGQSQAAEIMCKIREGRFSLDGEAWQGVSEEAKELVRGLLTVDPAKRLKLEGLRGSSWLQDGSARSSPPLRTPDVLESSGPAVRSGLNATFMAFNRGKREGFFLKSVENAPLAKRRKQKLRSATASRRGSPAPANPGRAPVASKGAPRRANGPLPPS
Chain of CSNK2A1 (human) (P68400 whole entry, looked up): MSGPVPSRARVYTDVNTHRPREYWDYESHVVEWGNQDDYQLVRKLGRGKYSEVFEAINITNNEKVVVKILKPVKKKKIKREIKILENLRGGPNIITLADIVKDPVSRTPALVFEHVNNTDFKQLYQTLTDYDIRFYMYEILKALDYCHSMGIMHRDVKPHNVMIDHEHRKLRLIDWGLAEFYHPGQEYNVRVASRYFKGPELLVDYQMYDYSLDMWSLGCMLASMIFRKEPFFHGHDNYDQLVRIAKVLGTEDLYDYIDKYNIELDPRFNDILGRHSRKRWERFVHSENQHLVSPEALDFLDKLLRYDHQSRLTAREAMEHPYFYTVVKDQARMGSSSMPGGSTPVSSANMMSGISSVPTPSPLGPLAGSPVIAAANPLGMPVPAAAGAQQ
Chain of AKT3 (human) (Q9Y243 whole entry, looked up): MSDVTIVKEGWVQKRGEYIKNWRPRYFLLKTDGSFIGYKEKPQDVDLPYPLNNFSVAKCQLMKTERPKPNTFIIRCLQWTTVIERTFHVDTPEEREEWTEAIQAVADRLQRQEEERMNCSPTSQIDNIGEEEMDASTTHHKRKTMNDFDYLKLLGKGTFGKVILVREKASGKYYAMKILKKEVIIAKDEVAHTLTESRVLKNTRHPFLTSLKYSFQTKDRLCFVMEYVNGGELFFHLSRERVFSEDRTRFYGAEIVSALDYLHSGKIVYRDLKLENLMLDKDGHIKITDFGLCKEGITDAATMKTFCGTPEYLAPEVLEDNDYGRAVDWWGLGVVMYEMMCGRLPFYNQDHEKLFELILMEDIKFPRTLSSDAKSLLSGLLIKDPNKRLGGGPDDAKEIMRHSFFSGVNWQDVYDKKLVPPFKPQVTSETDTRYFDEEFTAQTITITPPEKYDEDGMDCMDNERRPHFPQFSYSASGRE
Chain of SGK2 (human) (Q9HBY8 whole entry, looked up): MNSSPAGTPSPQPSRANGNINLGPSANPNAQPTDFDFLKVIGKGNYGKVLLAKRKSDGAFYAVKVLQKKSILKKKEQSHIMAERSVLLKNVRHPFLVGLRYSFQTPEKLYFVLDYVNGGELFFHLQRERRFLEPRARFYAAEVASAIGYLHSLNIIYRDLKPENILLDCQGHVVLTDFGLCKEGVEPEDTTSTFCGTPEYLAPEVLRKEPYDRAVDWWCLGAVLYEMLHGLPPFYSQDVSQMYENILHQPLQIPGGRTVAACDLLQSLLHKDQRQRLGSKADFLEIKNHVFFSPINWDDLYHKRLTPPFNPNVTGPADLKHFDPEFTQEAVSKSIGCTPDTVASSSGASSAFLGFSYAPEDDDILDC
Chain of PDGFRB (human) (P09619 whole entry, looked up): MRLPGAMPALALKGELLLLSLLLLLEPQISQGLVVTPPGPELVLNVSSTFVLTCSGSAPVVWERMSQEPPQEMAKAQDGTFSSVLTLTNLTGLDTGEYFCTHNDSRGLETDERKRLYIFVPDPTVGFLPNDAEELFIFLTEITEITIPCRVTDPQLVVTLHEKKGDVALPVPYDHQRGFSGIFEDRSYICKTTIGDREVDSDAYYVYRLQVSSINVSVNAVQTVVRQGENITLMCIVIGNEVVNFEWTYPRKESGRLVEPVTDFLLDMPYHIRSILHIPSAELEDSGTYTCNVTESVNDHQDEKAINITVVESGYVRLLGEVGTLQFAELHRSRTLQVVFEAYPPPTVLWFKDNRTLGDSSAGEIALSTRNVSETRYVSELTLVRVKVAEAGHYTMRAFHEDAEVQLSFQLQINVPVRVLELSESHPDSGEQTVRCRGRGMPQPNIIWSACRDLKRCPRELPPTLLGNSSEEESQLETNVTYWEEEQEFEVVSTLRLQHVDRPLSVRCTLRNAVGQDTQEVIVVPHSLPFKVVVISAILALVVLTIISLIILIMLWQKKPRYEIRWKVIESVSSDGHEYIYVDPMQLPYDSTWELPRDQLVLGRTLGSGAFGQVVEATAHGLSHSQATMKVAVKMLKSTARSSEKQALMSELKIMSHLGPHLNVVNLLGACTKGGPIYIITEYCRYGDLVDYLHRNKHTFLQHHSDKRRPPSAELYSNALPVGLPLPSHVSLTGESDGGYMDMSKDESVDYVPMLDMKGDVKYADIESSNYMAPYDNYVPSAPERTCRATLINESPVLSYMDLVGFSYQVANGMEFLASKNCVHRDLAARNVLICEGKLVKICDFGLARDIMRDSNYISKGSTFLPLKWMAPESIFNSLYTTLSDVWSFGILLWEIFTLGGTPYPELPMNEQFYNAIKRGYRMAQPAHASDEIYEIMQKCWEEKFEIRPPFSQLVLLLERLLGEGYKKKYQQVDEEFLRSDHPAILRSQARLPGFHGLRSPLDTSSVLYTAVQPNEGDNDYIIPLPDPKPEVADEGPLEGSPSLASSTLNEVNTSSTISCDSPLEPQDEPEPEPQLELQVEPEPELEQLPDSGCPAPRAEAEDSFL
Chain of TXK (human) (P42681 whole entry, looked up): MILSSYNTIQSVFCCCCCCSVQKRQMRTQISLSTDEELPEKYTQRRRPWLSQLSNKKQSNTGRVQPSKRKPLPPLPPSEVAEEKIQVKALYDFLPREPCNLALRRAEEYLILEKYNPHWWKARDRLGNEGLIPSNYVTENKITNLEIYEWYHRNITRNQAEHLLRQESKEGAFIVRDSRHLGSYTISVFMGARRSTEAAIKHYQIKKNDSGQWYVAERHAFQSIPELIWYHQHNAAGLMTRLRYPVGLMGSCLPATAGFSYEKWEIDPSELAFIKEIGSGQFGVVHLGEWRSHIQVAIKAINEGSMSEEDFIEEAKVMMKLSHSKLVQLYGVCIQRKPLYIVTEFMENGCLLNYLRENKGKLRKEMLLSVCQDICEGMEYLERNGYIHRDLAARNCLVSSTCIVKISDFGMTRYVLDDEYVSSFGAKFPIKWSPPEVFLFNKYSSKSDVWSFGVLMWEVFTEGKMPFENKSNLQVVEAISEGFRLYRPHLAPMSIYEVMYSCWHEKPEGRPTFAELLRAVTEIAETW
Chain of NEK6 (human) (Q9HC98 whole entry, looked up): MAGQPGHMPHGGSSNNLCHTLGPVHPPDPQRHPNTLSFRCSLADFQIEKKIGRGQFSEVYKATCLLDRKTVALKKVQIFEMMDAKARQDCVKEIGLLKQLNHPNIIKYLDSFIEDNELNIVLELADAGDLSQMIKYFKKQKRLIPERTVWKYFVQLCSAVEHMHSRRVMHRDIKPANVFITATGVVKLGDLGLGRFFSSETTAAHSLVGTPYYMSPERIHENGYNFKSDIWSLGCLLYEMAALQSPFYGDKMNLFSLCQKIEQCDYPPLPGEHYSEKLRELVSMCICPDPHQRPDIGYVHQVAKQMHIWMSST
Chain of TYRO3 (human) (Q06418 whole entry, looked up): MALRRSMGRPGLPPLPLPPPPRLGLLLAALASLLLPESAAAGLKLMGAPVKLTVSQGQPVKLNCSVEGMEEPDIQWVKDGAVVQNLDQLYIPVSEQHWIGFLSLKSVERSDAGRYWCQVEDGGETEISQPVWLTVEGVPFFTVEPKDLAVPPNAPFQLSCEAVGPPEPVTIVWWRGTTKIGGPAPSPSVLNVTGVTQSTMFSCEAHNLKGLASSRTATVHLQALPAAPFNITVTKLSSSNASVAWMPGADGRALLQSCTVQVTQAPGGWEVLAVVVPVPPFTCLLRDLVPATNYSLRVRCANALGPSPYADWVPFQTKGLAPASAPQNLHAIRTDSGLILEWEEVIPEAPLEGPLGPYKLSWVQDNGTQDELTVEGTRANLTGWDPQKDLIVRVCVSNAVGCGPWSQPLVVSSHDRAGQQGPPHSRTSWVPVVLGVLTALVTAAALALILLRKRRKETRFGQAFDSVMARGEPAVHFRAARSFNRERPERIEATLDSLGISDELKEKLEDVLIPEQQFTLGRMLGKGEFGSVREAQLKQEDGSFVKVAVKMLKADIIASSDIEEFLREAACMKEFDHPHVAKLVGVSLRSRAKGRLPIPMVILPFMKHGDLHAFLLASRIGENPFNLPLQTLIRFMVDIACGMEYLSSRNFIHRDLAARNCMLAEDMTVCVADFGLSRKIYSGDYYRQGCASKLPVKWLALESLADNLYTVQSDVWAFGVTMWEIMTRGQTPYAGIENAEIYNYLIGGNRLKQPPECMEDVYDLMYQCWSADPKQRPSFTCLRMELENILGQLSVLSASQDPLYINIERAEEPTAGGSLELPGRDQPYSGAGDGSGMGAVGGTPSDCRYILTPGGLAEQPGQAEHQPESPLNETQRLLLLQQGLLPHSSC

residual activity (DYRK1B (human)): 84.7% | residual activity (DCLK2 (human)): 88.5% | residual activity (GRK5 (human)): 103% | residual activity (SGK2 (human)): 91.8% | residual activity (CAMK1G (human)): 101% | residual activity (TXK (human)): 66.7% | residual activity (EPHA5 (human)): 86.5% | residual activity (SRPK3 (human)): 97.5% | residual activity (AKT3 (human)): 98.8% | residual activity (IKBKB (human)): 96.1% | residual activity (SRPK1 (human)): 89.3% | residual activity (FGR (human)): 35.7% | residual activity (MAPK1 (human)): 96.6% | residual activity (RPS6KA4 KD2 (human)): 58.7% | residual activity (TGFBR1 (human)): 98.9% | residual activity (TYRO3 (human)): 79.6% | residual activity (ADRBK2 (human)): 108% | residual activity (NEK1 (human)): 96.9% | residual activity (SRMS (human)): 102% | residual activity (BLK (human)): 75.1% | residual activity (CSNK1G1 (human)): 86.8% | residual activity (MAPKAPK5 (human)): 101% | residual activity (ACVR1 (human)): 112% | residual activity (DYRK4 (human)): 96.8% | residual activity (CDK9 CCNT1 (human)): 75.2% | residual activity (PDGFRB (human)): 72.6% | residual activity (ABL1 (human)): 82.5% | residual activity (RPS6KA6 KD1 KD2 (human)): 52.2% | residual activity (CDK4 CCND3 (human)): 98.9% | residual activity (MAPK12 (human)): 99.5% | residual activity (EPHA7 (human)): 89.3% | residual activity (RPS6KA1 KD1 KD2 (human)): 39.6% | residual activity (BRSK1 (human)): 23.4% | residual activity (PRKCH (human)): 74.4% | residual activity (NEK6 (human)): 92.2% | residual activity (CSNK2A1 (human)): 78.2% | residual activity (NEK4 (human)): 95% | residual activity (CDK1 CCNB1 (human)): 68.7% | residual activity (DAPK1 (human)): 83.2% | residual activity (CDK6 CCND1 (human)): 52.8% | residual activity (STK3 (human)): 19.9%
Structure (SMILES): O=C1Nc2ccccc2/C1=C1\Nc2ccccc2\C1=N/O

residual activity (DYRK1B (human)): 65.1% | residual activity (DCLK2 (human)): 86.4% | residual activity (GRK5 (human)): 84.6% | residual activity (SGK2 (human)): 75.8% | residual activity (CAMK1G (human)): 102% | residual activity (TXK (human)): 25.6% | residual activity (EPHA5 (human)): 68% | residual activity (SRPK3 (human)): 59.5% | residual activity (AKT3 (human)): 92.9% | residual activity (IKBKB (human)): 90.5% | residual activity (SRPK1 (human)): 71.3% | residual activity (FGR (human)): 11.6% | residual activity (MAPK1 (human)): 89.8% | residual activity (RPS6KA4 KD2 (human)): 21.7% | residual activity (TGFBR1 (human)): 102% | residual activity (TYRO3 (human)): 71.5% | residual activity (ADRBK2 (human)): 100% | residual activity (NEK1 (human)): 92.9% | residual activity (SRMS (human)): 102% | residual activity (BLK (human)): 39.1% | residual activity (CSNK1G1 (human)): 89.2% | residual activity (MAPKAPK5 (human)): 86.8% | residual activity (ACVR1 (human)): 199% | residual activity (DYRK4 (human)): 100% | residual activity (CDK9 CCNT1 (human)): 52.5% | residual activity (PDGFRB (human)): 42.8% | residual activity (ABL1 (human)): 71.9% | residual activity (RPS6KA6 KD1 KD2 (human)): 16.4% | residual activity (CDK4 CCND3 (human)): 66.1% | residual activity (MAPK12 (human)): 89.9% | residual activity (EPHA7 (human)): 71.4% | residual activity (RPS6KA1 KD1 KD2 (human)): 8.85% | residual activity (BRSK1 (human)): 39.5% | residual activity (PRKCH (human)): 82.2% | residual activity (NEK6 (human)): 96.3% | residual activity (CSNK2A1 (human)): 57.6% | residual activity (NEK4 (human)): 83.9% | residual activity (CDK1 CCNB1 (human)): 33.4% | residual activity (DAPK1 (human)): 80.9% | residual activity (CDK6 CCND1 (human)): 27.7% | residual activity (STK3 (human)): 4.81%
Structure (SMILES): O=C1Nc2ccccc2/C1=C1/Nc2ccccc2/C1=N\OCCC(O)CO (centres undefined)

Structure (SMILES): Oc1ccc(Nc2nc(-c3ccc(Cl)cc3)cs2)cc1
residual activity (DYRK1B (human)): 106% | residual activity (DCLK2 (human)): 98.5% | residual activity (GRK5 (human)): 92% | residual activity (SGK2 (human)): 108% | residual activity (CAMK1G (human)): 106% | residual activity (TXK (human)): 100% | residual activity (EPHA5 (human)): 92.6% | residual activity (SRPK3 (human)): 98.1% | residual activity (AKT3 (human)): 105% | residual activity (IKBKB (human)): 104% | residual activity (SRPK1 (human)): 103% | residual activity (FGR (human)): 96.4% | residual activity (MAPK1 (human)): 106% | residual activity (RPS6KA4 KD2 (human)): 91.5% | residual activity (TGFBR1 (human)): 99.9% | residual activity (TYRO3 (human)): 102% | residual activity (ADRBK2 (human)): 97.6% | residual activity (NEK1 (human)): 104% | residual activity (SRMS (human)): 106% | residual activity (BLK (human)): 100% | residual activity (CSNK1G1 (human)): 94.5% | residual activity (MAPKAPK5 (human)): 96.8% | residual activity (ACVR1 (human)): 94.9% | residual activity (DYRK4 (human)): 95.9% | residual activity (CDK9 CCNT1 (human)): 87.8% | residual activity (PDGFRB (human)): 107% | residual activity (ABL1 (human)): 99.7% | residual activity (RPS6KA6 KD1 KD2 (human)): 117% | residual activity (CDK4 CCND3 (human)): 108% | residual activity (MAPK12 (human)): 106% | residual activity (EPHA7 (human)): 97.7% | residual activity (RPS6KA1 KD1 KD2 (human)): 97.7% | residual activity (BRSK1 (human)): 102% | residual activity (PRKCH (human)): 96.3% | residual activity (NEK6 (human)): 95.2% | residual activity (CSNK2A1 (human)): 101% | residual activity (NEK4 (human)): 104% | residual activity (CDK1 CCNB1 (human)): 109% | residual activity (DAPK1 (human)): 101% | residual activity (CDK6 CCND1 (human)): 101% | residual activity (STK3 (human)): 114%

Structure (SMILES): Cn1cnc2cc3c(Nc4cccc(Br)c4)ncnc3cc21
residual activity (DYRK1B (human)): 98.1% | residual activity (DCLK2 (human)): 92.9% | residual activity (GRK5 (human)): 109% | residual activity (SGK2 (human)): 104% | residual activity (CAMK1G (human)): 94.2% | residual activity (TXK (human)): 86.7% | residual activity (EPHA5 (human)): 71.5% | residual activity (SRPK3 (human)): 94.9% | residual activity (AKT3 (human)): 89.5% | residual activity (IKBKB (human)): 104% | residual activity (SRPK1 (human)): 96.1% | residual activity (FGR (human)): 55.8% | residual activity (MAPK1 (human)): 94.2% | residual activity (RPS6KA4 KD2 (human)): 96.3% | residual activity (TGFBR1 (human)): 97.6% | residual activity (TYRO3 (human)): 94.5% | residual activity (ADRBK2 (human)): 89.9% | residual activity (NEK1 (human)): 97.9% | residual activity (SRMS (human)): 84% | residual activity (BLK (human)): 81% | residual activity (CSNK1G1 (human)): 104% | residual activity (MAPKAPK5 (human)): 130% | residual activity (ACVR1 (human)): 109% | residual activity (DYRK4 (human)): 97.5% | residual activity (CDK9 CCNT1 (human)): 88.5% | residual activity (PDGFRB (human)): 99.7% | residual activity (ABL1 (human)): 32.6% | residual activity (RPS6KA6 KD1 KD2 (human)): 92.5% | residual activity (CDK4 CCND3 (human)): 95.9% | residual activity (MAPK12 (human)): 92% | residual activity (EPHA7 (human)): 72% | residual activity (RPS6KA1 KD1 KD2 (human)): 103% | residual activity (BRSK1 (human)): 81.6% | residual activity (PRKCH (human)): 81.2% | residual activity (NEK6 (human)): 98.1% | residual activity (CSNK2A1 (human)): 99% | residual activity (NEK4 (human)): 96.8% | residual activity (CDK1 CCNB1 (human)): 97.9% | residual activity (DAPK1 (human)): 87.2% | residual activity (CDK6 CCND1 (human)): 107% | residual activity (STK3 (human)): 89.9%
